In patent US20240376154A1, “BIS-INTERCALATING PEPTIDES, CONJUGATES AND METHODS OF USE” (ZYMEWORKS BC INC., priority 2023, published 2024):

Legend:
herring sperm DNA = test: DNA melting temperature by differential scanning calorimetry (DSC); assay type: binding; conditions: DSC; herring sperm DNA; DNA melting temperature = 68° C.
Description: Representative compounds prepared as described in Example 2 were assessed in two complementary DNA-binding assays. Increased melting temperature of herring sperm DNA was measured using differential scanning calorimetry (DSC) and binding kinetics were determined by surface plasmon resonance (SPR) using a short DNA hairpin sequence.
DSC experiments were conducted as described in Leng, 2003, Nucleic Acids Res., 31 (21): […], using a Nano DSC (TA Instruments, New Castle, DE) and analyzed using the NanoAnalyze™ software package. Herring sperm DNA solution (Invitrogen 15634017, 10 mg/mL) was diluted to 1 mg/mL (1.4 mM base pair) in BPE buffer (6 mM Na2HPO4, 2 mM NaH2PO4, 1 mM Na4EDTA, pH 7.0). Test articles (20 μL, 10 mM in DMSO) were added and allowed reach equilibrium binding (>3 h), any insoluble material was removed by low-speed centrifugation, then samples were heated from 25 to 110° C. at a scan rate of 1° C./min. Melting curves were plotted and melting temperature was determined using NanoAnalyze™.

[1] = Lipophilicity by experimental HPLC retention time; assay type: physicochemical; conditions: HPLC retention time as measure of lipophilicity; C18, 10 to 90% CH3CN/H2O with 0.1% FA over 25 min
Description: The ability to kill neighboring cells (i.e. bystander effect) is an important property for ADC payloads. For a payload comprising a compound of Formula I to be capable of bystander killing, membrane permeability (or transport) is required and the ability of compounds of Formula I to cross cell membranes and exert a cytotoxic effect was expected to be heavily influenced by lipophilicity.
Compounds were analyzed using an Agilent 1260 HPLC (Agilent Technologies, Inc., Santa Clara, CA) equipped with a Diode array detector and using a Phenomenex Kinetex EVO C18 150×4.6, 2.6 μm column (Phenomenex, Torrance, CA), eluting with 10 to 90% CH3CN/H2O with 0.1% FA over 25 min.

[2] = system: tumour cells (at least 4 of a panel of ovarian, breast, lung, pancreatic, placenta, colon cell lines); test: In vitro cytotoxicity (cell proliferation, CellTiter-Glo), average over tumour cell line panel; assay type: cell-based; conditions: average pIC50 on all cell lines tested; 5 nights incubation; CellTiter-Glo
Description: The ability of representative compounds of Formula I to inhibit proliferation of tumour cells in vitro was evaluated in at least 4 of the following cell lines: OVCAR-3 (ovarian, ATCC), SKOV-3 (ovarian, ATCC), IGROV-1 (ovarian, national research council of Canada (NRC)), OV-90 (ovarian, ATCC), OVKATE (Ovarian, Japanese Collection of Research Bioresources (JCRB) (JCRB1044)), JIMT-1 (breast, NRC), SK-BR-3 (breast, ATCC), T-47D (breast, ATCC), ZR-75-1 (breast, ATCC), MDA-MB-468 (breast, AddexBio), BT-20 (breast, ATCC), BT-474 (breast, NRC), MDA-MB-175 (breast, AddexBio), A549 (lung, collaborator), NCI-H226 (lung, NRC), NCI-H661 (lung, NRC), NCI-H1573 (lung, ATCC). NCI-H1563 (lung, ATCC), H358 (lung, collaborator), EBC-1 (lung, Xenotech), H1299 (lung, NRC), NCI-H292 (lung, ATCC), HCC817 (lung, ATCC), NCI-H441 (lung, ATCC), MIA-PaCa-2 (pancreatic, ATCC), BxPC-3 (pancreatic, ATCC), Panc-1 (pancreatic, ATCC), AsPC-1 (pancreatic, ATCC), JEG-3 (placenta, AddexBio), HT-29 (colon, ATCC).
Cells were cultured per vendor instructions and in log-phase growth were detached by brief incubation in 0.05% trypsin, then resuspended in respective culturing media at 20,000 cells/mL (except for ZR-75 cells, which were resuspended at 10,000 cells/mL). 50 μL/well (˜1000 cells/well) were transferred to sterile tissue culture (TC)-treated 384-well plates (ThermoFisher Scientific, Catalogue #164610) and incubated overnight at 37° C. with 5% CO2 to allow the cells to adhere to the plate surface. The next day, in a sterile, V-bottom, 96-well plate, test articles were titrated 1:3 in complete growth medium, creating a 10-point dose response titration with compounds at 3.5-times the desired final concentration. 20 μL from each dilution were added to the 384-well plate containing the seeded cells and these plates were incubated at 37° C. with 5% CO2 for 5 nights. Cell viability was quantified by first incubating with 15 μL/well of CellTiter-Glo® (Promega, Catalogue #G7572) for 30 minutes, then measuring luminescence with a microplate luminometer (BioTek® Synergy™ H1 Microplate Reader). IC50 values were determined by GraphPad Prism (GraphPad Software, San Diego, CA).
The results are presented in Table 7.1 and discussed in Example 7. Table 7.1 presents the results as average pIC50 values. pIC50=−log (IC50), thus, for example, pIC50=9 is equivalent to IC50=1 nM, and pIC50=6 is equivalent to IC50=1 μM.

Structure (SMILES): CC(C)[C@H]1C(=O)O[C@H](C)[C@@H](NC(=O)c2nc3ccccc3cc2O)C(=O)N2CCCC[C@H]2C(=O)NCC(=O)N(C)CC(=O)N(C)[C@@H](C(C)C)C(=O)O[C@H](C)[C@@H](NC(=O)c2nc3ccccc3cc2O)C(=O)N2CCCC[C@H]2C(=O)NCC(=O)N(C)CC(=O)N1C [Compound 22, N,N′-((7R,8R,11S,19aS,26R,27R,30S,38aS)-11,30-diisopropyl-8,12,15,27,31,34-hexamethyl-6,10,13,16,19,25,29,32,35,38-decaoxodotriacontahydro-2H,6H,10H,25H-dipyrido[2,1-b1: 2′,1′-l][1,17]dioxa[4,7,10,13,20,23,26,29]octaazacyclodotriacontine-7,26-diyl)bis(3-hydroxyquinoline-2-carboxamide)]
- DNA melt (° C.) (herring sperm DNA): 85 °C
- HPLC [1]: 21.6 min
- pIC50 (average) [2]: 7.6

Structure (SMILES): CC[C@H](C)[C@H]1C(=O)NC[C@@H](NC(=O)c2nc3ccccc3cc2O)C(=O)N2CCCC[C@H]2C(=O)NCC(=O)N(C)CC(=O)N(C)[C@@H]([C@@H](C)CC)C(=O)O[C@H](C)[C@@H](NC(=O)c2nc3ccccc3cc2O)C(=O)N2CCCC[C@H]2C(=O)NCC(=O)N(C)CC(=O)N1C [Compound 30, N,N′-((7R,8R,11S,19aS,26R,30S,38aS)-11,30-di((S)-sec-butyl)-8,12,15,31,34-pentamethyl-6,10,13,16,19,25,29,32,35,38-decaoxotetratriacontahydro-2H,6H,10H-dipyrido[2,1-b1: 2′,1′-l][1]oxa[4,7,10,13,17,20,23,26,29]nonaazacyclodotriacontine-7,26-diyl)bis(3-hydroxyquinoline-2-carboxamide)]
- DNA melt (° C.) (herring sperm DNA): 85 °C
- HPLC [1]: 20.9 min
- pIC50 (average) [2]: 8.3

Structure (SMILES): CC(C)[C@H]1C(=O)NC[C@@H](NC(=O)c2nc3ccccc3cc2O)C(=O)N2CCCC[C@H]2C(=O)NCC(=O)N(C)CC(=O)N(C)[C@@H](C(C)C)C(=O)NC[C@@H](NC(=O)c2nc3ccccc3cc2O)C(=O)N2CCCC[C@H]2C(=O)NCC(=O)N(C)CC(=O)N1C [Compound 35, N,N′-((7R,11S,19aS,26R,30S,38aS)-11,30-diisopropyl-12,15,31,34-tetramethyl-6,10,13,16,19,25,29,32,35,38-decaoxohexatriacontahydro-2H,6H-dipyrido[1,2-a:1′,2′-q][1,4,7,10,13,17,20,23,26,29]decaazacyclodotriacontine-7,26-diyl)bis(3-hydroxyquinoline-2-carboxamide)]
- DNA melt (° C.) (herring sperm DNA): 88 °C
- HPLC [1]: 17.1 min
- pIC50 (average) [2]: 7.3

Structure (SMILES): CC(C)[C@H]1C(=O)N(C)C[C@@H](NC(=O)c2nc3ccccc3cc2O)C(=O)N2CCCC[C@H]2C(=O)NCC(=O)N(C)CC(=O)N(C)[C@@H](C(C)C)C(=O)N(C)C[C@@H](NC(=O)c2nc3ccccc3cc2O)C(=O)N2CCCC[C@H]2C(=O)NCC(=O)N(C)CC(=O)N1C [Compound 42, N,N′-((7R,11S,19aS,26R,30S,38aS)-11,30-diisopropyl-9,12,15,28,31,34-hexamethyl-6,10,13,16,19,25,29,32,35,38-decaoxohexatriacontahydro-2H,6H-dipyrido[1,2-a:1′,2′-q][1,4,7,10,13,17,20,23,26,29]decaazacyclodotriacontine-7,26-diyl)bis(3-hydroxyquinoline-2-carboxamide)]
- DNA melt (° C.) (herring sperm DNA): 88 °C
- HPLC [1]: 17.7 min
- pIC50 (average) [2]: 7.3

Structure (SMILES): CN1CC(=O)N2CCCC[C@H]2C(=O)NC[C@@H](NC(=O)c2nc3ccccc3cc2O)C(=O)N2CCCC[C@H]2C(=O)NCC(=O)N(C)CC(=O)N2CCCC[C@H]2C(=O)NC[C@@H](NC(=O)c2nc3ccccc3cc2O)C(=O)N2CCCC[C@H]2C(=O)NCC1=O [Compound 49, N,N′-((7R,10aS,22aS,29R,32aS,44aS)-18,40-dimethyl-6,10,16,19,22,28,32,38,41,44-decaoxotetratetracontahydrotetrapyrido[1,2-a:1′,2′-j:1″,2″-q:1″,2′″-z][1,4,7,10,13,17,20,23,26,29]decaazacyclodotriacontine-7,29-diyl)bis(3-hydroxyquinoline-2-carboxamide)]
- DNA melt (° C.) (herring sperm DNA): 97 °C
- HPLC [1]: 15.7 min
- pIC50 (average) [2]: 7.2

Structure (SMILES): CC(C)[C@H]1C(=O)NC[C@@H](NC(=O)c2nc3ccccc3cc2O)C(=O)N2CCCC[C@H]2C(=O)NCC(=O)N(C)CC(=O)N(C)[C@@H]([C@@H](C)OC(C)(C)C)C(=O)NC[C@@H](NC(=O)c2nc3ccccc3cc2O)C(=O)N2CCCC[C@H]2C(=O)NCC(=O)N(C)CC(=O)N1C [Compound 54, N,N′-((7R,11S,19aS,26R,30S,38aS)-11-((R)-1-(tert-butoxy)ethyl)-30-isopropyl-12,15,31,34-tetramethyl-6,10,13,16,19,25,29,32,35,38-decaoxohexatriacontahydro-2H,6H-dipyrido[1,2-a:1′,2′-q][1,4,7,10,13,17,20,23,26,29]decaazacyclodotriacontine-7,26-diyl)bis(3-hydroxyquinoline-2-carboxamide)]
- DNA melt (° C.) (herring sperm DNA): 88 °C
- HPLC [1]: 18.4 min
- pIC50 (average) [2]: 8.1

Structure (SMILES): CC(C)[C@H]1C(=O)NC[C@@H](NC(=O)c2nc3ccccc3cc2O)C(=O)N2CCCC[C@H]2C(=O)NCC(=O)N(C)CC(=O)N(C)[C@@H]([C@@H](C)O)C(=O)NC[C@@H](NC(=O)c2nc3ccccc3cc2O)C(=O)N2CCCC[C@H]2C(=O)NCC(=O)N(C)CC(=O)N1C [Compound 55, N,N′-((7R,11S,19aS,26R,30S,38aS)-11-((R)-1-hydroxyethyl)-30-isopropyl-12,15,31,34-tetramethyl-6,10,13,16,19,25,29,32,35,38-decaoxohexatriacontahydro-2H,6H-dipyrido[1,2-a:1′,2′-q][1,4,7,10,13,17,20,23,26,29]decaazacyclodotriacontine-7,26-diyl)bis(3-hydroxyquinoline-2-carboxamide)]
- DNA melt (° C.) (herring sperm DNA): 86 °C
- HPLC [1]: 10.6 min
- pIC50 (average) [2]: inactive

Structure (SMILES): CC[C@H](C)[C@H]1C(=O)NC[C@@H](NC(=O)c2nc3ccccc3cc2O)C(=O)N2CCCC[C@H]2C(=O)NCC(=O)N(C)CC(=O)N(C)[C@@H](C(C)C)C(=O)NC[C@@H](NC(=O)c2nc3ccccc3cc2O)C(=O)N2CCCC[C@H]2C(=O)NCC(=O)N(C)CC(=O)N1C [Compound 72]
- DNA melt (° C.) (herring sperm DNA): 89 °C
- HPLC [1]: 18.0 min
- pIC50 (average) [2]: 7.6

Structure (SMILES): CC(C)[C@H]1C(=O)NC[C@@H](NC(=O)c2nc3ccccc3cc2O)C(=O)N2CCCC[C@H]2C(=O)NCC(=O)N(C)CC(=O)N2CCC[C@H]2C(=O)NC[C@@H](NC(=O)c2nc3ccccc3cc2O)C(=O)N2CCCC[C@H]2C(=O)NCC(=O)N(C)CC(=O)N1C [Compound 77]
- DNA melt (° C.) (herring sperm DNA): 88 °C
- HPLC [1]: 15.0 min
- pIC50 (average) [2]: 6.9
